# Test results as given in patent publication US8592603B2, “Synthesis of 2-(4-aminophenyl) benzothiazole derivatives and use thereof” (Kaohsiung Medical University, priority 2011, dated 2013).
# Assays:
# caspase-3 = experiment: Caspase-3 colorimetric assay; assay type: cell-based, human; details: BCC cells, 6f-UVA treatment, compared with untreated control, p<0.01 (FIG. 4A)
# Method: (§1) (A) The increased enzymatic activities of the caspase-3 in apoptotic were determined by colorimetric reaction. The cleavage of peptide by the caspase releases the chromophore pNA (p-nitroaniline), which can be quantified spectrophotometrically at a wavelength of 405 nm. (B) Dot plots for BCC cells treated with various concentrations of 6f-UVA and then stained with PI and an annexin V-FITC conjugate specifically detecting the exposure of PS residues at the cell surface. (C) Morphological observation and annexin V/PI double stain were used for the detection of fibroblasts apoptosis. Approximately 10000 cells from each group were analyzed by flow cytometry. Data shown are of a representative experiment repeated three times with similar results. ** p<0.01 as compared with the control.
# Twenty-four hours after irradiation, cells were collected by centrifugation, washed once with PBS, and cell pellets were counted and resuspended in 25 μL/1×10^6 cells of cold lysis buffer and homogenized. Homogenates were centrifuged at 12,000 rpm for 10 min at 4° C., supernatants were used for measuring caspase-3 activity using an ELISA-based assay, according to the manufacturer's instructions. (R&D Systems, Minneapolis, Minn.). The results were presented as mean±SD.
# BCC cells [1] = experiment: Annexin V and PI binding assay; assay type: cell-based, human; details: for apoptotic cells (annexin V+/PI−): BCC cells, 1 J/cm^2 UVA
# Method: as §1
# (§2) To assess the simultaneous observation of early phase of apoptotic and necrotic features, BCC cells were treated with various concentrations (0-4 μM) of Formula 6f for 4 h before irradiation. Twenty-four hours after irradiation, cells were harvested by trypsinization and centrifugation and measured by cytometry by adding annexin V-FITC to […] per sample according to the manufacturer's specifications (Bender MedSystems, Vienna, Austria). Simultaneously, the cells were stained with PI. Flow cytometry data were analyzed by the WinMDI software.
# [2] = test system: human dermal fibroblast cells; experiment: Morphology observation and annexin V/PI binding assay on normal cells; assay type: cell-based; details: 4 μM for 4 h, 1 J/cm2 UVA (FIG. 4C)
# Method: as §1, §2
# BCC or fibroblasts (5×10^5 cells/well) seeded on 6 well plate. […]
# BCC cells [3] = experiment: ATP content bioluminescence assay; assay type: cell-based, human
# Method: (A) 6f-UVA induced ROS generation in BCC cells. Histogram of fluorescence vs cell count in BCC cells with various concentrations of 6f-UVA and stained with DCFH-DA. As a control, ROS was measured in the presence of catalase, a H2O2 scavenger. (B) The ΔΨmt of BCC cells after exposure to 6f-UVA. Cells were treated with 0, 2, and 4 μM Formula 6f for 4 h followed by 1 J/cm2 UVA irradiation, then stained with DiOC6 and analyzed immediately by flow cytometry as described under Materials and Methods. The number in M1 indicates the percentage of cells with reduced ΔΨmt. Approximately 10000 cells from each group were analyzed by flow cytometry. (C) Relative ATP levels were calculated as the percentage of the 0 μM level. Similar results were obtained in three independent experiments. *p<0.05, ** p<0.01 as compared with the control.
# The amount of intracellular ATP was determined by bioluminescent assay based on the measurement of the light output of the luciferin-luciferase reaction. After treatment with various concentrations of 6f-UVA, total cell extracts from cultured BCC cells were obtained immediately by lysing solution. After centrifugation to remove cell debris, the supernatants were collected for ATP measurement. The total amount of intracellular ATP was determined according to the protocol provided with the ATPLite assay kit (Perkin Elmer, Boston, Mass.).
# ERK = experiment: Western blot analysis of MAPK phosphorylation: ERK; assay type: cell-based, human; details: BCC cells, 6f-UVA at 4 μM, compared with untreated control (FIG. 6A)
# Method: (§3) (A) After exposure to different concentration of 6f-UVA, cell lysates were collected and immunoblotted with specific antibodies as indicated. For the internal control, the same amounts of protein extract were also probed with antibody against actin. (B) As a control, the expression level of p-ERK was determined in the presence of oligomycin (25 μM) and ATP (1×10^−4M)
# Total cell extracts from cultured BCC cells were obtained by lysing the cells in ice-cold RIPA buffer (1×PBS, 1% NP-40, 0.5% sodium deoxycholate, 0.1% SDS) containing 100 μg/mL PMSF, 2 μg/mL aprotinin, 2 μg/mL leupeptin and 100 μg/mL NaF. After centrifugation at 14,000 g for 30 min, protein in the supernatants was quantified by Bradford method (Bio-Rad). Forty micrograms of protein per lane was applied in 10% SDS-poly-acrylamide gel. After electrophoresis, protein was transferred from the gel to polyvinylidene difluoride (PVDF) membrane (Millipore, Bedford, Mass.). The membranes were blocked at room temperature for 1 h in PBS+0.1% Tween 20 (PBS-T) containing 5% skim milk. After being briefly rinsed with PBS-T, the blots were probed with respective primary antibodies at room temperature for 2 h or at 4° C. overnight. Rabbit polyclonal antibodies against JNK (46 kDa), p38 (38 kDa), ERK (42, 44 kDa), and mouse monoclonal antibody against p-JNK, p-p38, p-ERK were purchased from Santa Cruz Biotechnology (Santa Cruz, Calif.). Mouse monoclonal antibody against actin was purchased from Chemicon Int. Inc. (Temecula, Calif.). For the blocking test, 25 μM oligomycin (Sigma, a mitochondria-specific F0F1 ATP synthase inhibitor) or 1×10^−4M ATP (Sigma) was added to the media 30 min before treated with 6f-UVA, respectively. The membrane was incubated with the corresponding horseradish peroxidase-labeled secondary antibody (Santa Cruz Biotechnology) at room temperature for 1 h. […] The relative amounts of specific proteins were quantified by densitometry scanning of X-ray films and analyzed by Eagle Eye Image System (Stratagene, La Jolla, Calif.)
# JNK MAPK = experiment: Western blot analysis of MAPK phosphorylation: JNK; assay type: cell-based, human; details: BCC cells, 6f-UVA (FIG. 6A)
# Method: as §3
# Total cell extracts from cultured BCC cells were obtained by lysing the cells in ice-cold RIPA buffer (1×PBS, 1% NP-40, 0.5% sodium deoxycholate, 0.1% SDS) containing 100 μg/mL PMSF, 2 μg/mL aprotinin, 2 μg/mL leupeptin and 100 μg/mL NaF. After centrifugation at 14,000 g for 30 min, protein in the supernatants was quantified by Bradford method (Bio-Rad). Forty micrograms of protein per lane was applied in 10% SDS-poly-acrylamide gel. After electrophoresis, protein was transferred from the gel to polyvinylidene difluoride (PVDF) membrane (Millipore, Bedford, Mass.). The membranes were blocked at room temperature for 1 h in PBS+0.1% Tween 20 (PBS-T) containing 5% skim milk. After being briefly rinsed with PBS-T, the blots were probed with respective primary antibodies at room temperature for 2 h or at 4° C. overnight. […] The relative amounts of specific proteins were quantified by densitometry scanning of X-ray films and analyzed by Eagle Eye Image System (Stratagene, La Jolla, Calif.)
compound,measurement,setting,value
"Nc1ccc(-c2nc3ccc(C(F)(F)F)cc3s2)cc1 [Formula 6f, 2-(4-Aminophenyl)-6-trifluoromethylbenzothiazole]",caspase-3 activity,caspase-3,increased
same,necrotic cells (annexin V+/PI+),"BCC cells [1]; BCC cells, 0, 2, and 4 μM, 1 J/cm^2 UVA (FIG. 4B)",no obvious change
same,apoptotic cells (annexin V+/PI−),BCC cells [1]; 2 μM,19.5%
same,apoptotic cells (annexin V+/PI−),BCC cells [1]; 4 μM,27.5%
same,apoptotic activity on normal cells,[2],no significant apoptotic effect
same,decrease of intracellular ATP content compared with untreated control,BCC cells [3]; 2 μM 6f-UVA,about 30%
same,decrease of intracellular ATP content compared with untreated control,BCC cells [3]; 4 μM 6f-UVA,~45%
same,phosphorylation of ERK (p-ERK),ERK,increased
same,phosphorylation of JNK MAPK,JNK MAPK,did not stimulate the phosphorylation
same,melting point,,181 to 183 °C
